From ChEMBL document CHEMBL3120134, “A review of non-nucleoside anti-hepatitis B virus agents” (Eur J Med Chem, 2014)
In brackets after ≈: the same amount, converted by molar mass.

Legend:
[1] = test system: Hepatitis B virus; assay: Antiviral activity against Hepatitis B virus infected in human HepG2.2.15 cells assessed as decrease in HBV DNA production; type: functional, organism-based; details: HepG2 2.2.15
[2] = Selectivity index, ratio of cytotoxicity towards human HepG2.2.15 cells to IC50 for HBV DNA production; type: toxicity, cell-based; details: read-out: Selectivity Index
[3] = test system: Hepatitis B virus; assay: Antiviral activity against Hepatitis B virus assessed as inhibition of interaction between Trx-PreS and HBcAg; type: functional, organism-based
[4] = test system: Hepatitis B virus; assay: Antiviral activity against Hepatitis B virus infected in human HepG2.2.15 cells assessed as decrease in HBV surface antigen secretion; type: functional, organism-based, HepG2 2.2.15; details: Hepatitis B virus, HepG2 2.2.15
[5] = test system: Hepatitis B virus; assay: Antiviral activity against Hepatitis B virus infected in human HepG2.2.15 cells assessed as decrease in HBV e antigen secretion; type: functional, organism-based, HepG2 2.2.15; details: Hepatitis B virus, HepG2 2.2.15
[6] = Selectivity index, ratio of cytotoxicity towards human HepG2.2.15 cells to IC50 for HBV e antigen secretion; type: toxicity, cell-based; details: read-out: Selectivity Index
[7] = test system: Hepatitis B virus; assay: Antiviral activity against Hepatitis B virus; type: functional, organism-based
[8] = Selectivity index, ratio of cytotoxicity towards human HepG2.2.15 cells to IC50 for HBV surface antigen secretion; type: toxicity, cell-based; details: read-out: Selectivity Index
[9] = test system: Duck hepatitis B virus; assay: Antiviral activity against Duck Hepatitis B virus infected in duckling assessed as decrease in DHBV DNA replication at 0.2 g/kg dosed for 10 days; type: functional; details: 240 h
[10] = test system: Hepatitis B virus; assay: Antiviral activity against Hepatitis B virus assessed as inhibition of Hepatitis B virus DNA replication; type: functional, organism-based
[11] = test system: Hepatitis B virus; assay: Antiviral activity against Hepatitis B virus infected in human HepG2.2.15 cells assessed as decrease in HBV surface antigen secretion after 21 days; type: functional, organism-based; details: HepG2 2.2.15, 504 h
[12] = test system: Hepatitis B virus; assay: Antiviral activity against Hepatitis B virus assessed as inhibition of Hepatitis B virus surface antigen secretion; type: functional, organism-based
[13] = test system: Hepatitis B virus; assay: Antiviral activity against Hepatitis B virus assessed as inhibition of Hepatitis B virus e antigen secretion; type: functional, organism-based
[14] = test system: Hepatitis B virus; assay: Antiviral activity against Hepatitis B virus infected in human HepG2.2.15 cells assessed as decrease in HBV surface antigen secretion by ELISA; type: functional, organism-based; details: HepG2 2.2.15
[15] = test system: Hepatitis B virus; assay: Antiviral activity against Hepatitis B virus infected in human HepG2.2.15 cells assessed as decrease in HBV e antigen secretion by ELISA; type: functional, organism-based; details: HepG2 2.2.15
[16] = test system: Hepatitis B virus; assay: Antiviral activity against Hepatitis B virus infected in human HepG2.2.15 cells assessed as decrease in HBV DNA production by quantitative RT-PCR analysis; type: functional, organism-based; details: HepG2 2.2.15
[17] = test system: Hepatitis B virus; assay: Antiviral activity against Hepatitis B virus infected in human MS-G2 cells assessed as decrease in HBV surface antigen production at 20 ug/ml; type: functional
[18] = test system: Hepatitis B virus; assay: Antiviral activity against Hepatitis B virus infected in human HepG2.2.15 cells assessed as decrease in HBV e antigen secretion after 9 days; type: functional, organism-based; details: HepG2 2.2.15, 216 h

`CCOC(=O)c1cc2cc(OC)c(O)c(Cn3ccnc3)c2nc1C[S+]([O-])c1ccc(F)c(F)c1` (stereo unspecified) showed an IC50 [1] of 2600 nM and a selectivity ratio [2] of 61.7.
In the case of `COc1cc2cc3c(nc2c(CN2CCCC2)c1O)-c1ccc(C)cc1SC3`, the IC50 [1] is reported as under 10000 nM.
With `COc1cc2cc3c(nc2c(CN2CCCCC2)c1O)-c1ccc(F)cc1SC3` the IC50 [1] was under 10000 nM.
`COc1ccc2c(c1)-c1nc3c(CN4CCCCC4)c(O)c(OC)cc3cc1CS2` showed an IC50 [1] of under 10000 nM.
Work on `COc1cc2cc3c(nc2c(Cn2ccnc2C)c1O)-c1ccc(F)cc1SC3` yielded an IC50 [1] of 1700 nM and a selectivity ratio [2] of 60.3.
For `O=C1OC(OCc2ccccc2)=N/C1=C\c1ccccc1`, the IC50 [3] was 5400 nM.
In the case of `CC(=O)O[C@H]([C@@H](O)C[C@@H](C)C1=C2C[C@H](O)[C@H]3[C@@]4(C)CCC(=O)C(C)(C)[C@@H]4CC[C@]3(C)[C@@]2(C)CC1)C(C)(C)O`, the IC50 [4] is reported as 600 nM.
Compound `C=C(C)[C@H](O)[C@@H](O)C[C@@H](C)C1=C2C[C@H](O)[C@H]3[C@@]4(C)CCC(=O)C(C)(C)[C@@H]4CC[C@]3(C)[C@@]2(C)CC1` has an IC50 [4] of 600 nM.
With `C[C@@H]1C[C@@H]([C@@H](O)C(C)(C)O)O[C@H]2C[C@@]3(C)C(=C12)C[C@H](O)[C@H]1[C@@]2(C)CCC(=O)C(C)(C)[C@@H]2CC[C@@]13C` the IC50 [4] was 600 nM.
Compound `CC(=O)O[C@H]([C@@H]1C[C@@H](C)C2=C3C[C@H](O)[C@H]4[C@@]5(C)CCC(=O)C(C)(C)[C@@H]5CC[C@]4(C)[C@@]3(C)C[C@@H]2O1)C(C)(C)O` has an IC50 [4] of 600 nM, an IC50 [5] of 5100 nM and a selectivity ratio [6] of 18.5.
Compound `O=C1NCc2c1cc1ccc3c(c1c2-c1ccc2c(c1)OCO2)OCO3` has an EC50 [7] of 80 nM.
With `O=c1[nH][nH]c(=O)c2c(-c3ccc4c(c3)OCO4)c3c4c(ccc3cc12)OCO4` the EC50 [7] was 30 nM.
`C[C@H](C[C@H](O)[C@@H](O)C(C)(C)O)[C@]12CC[C@@]3(C)[C@@]1(C[C@H](O)[C@H]1[C@@]4(C)CCC(=O)C(C)(C)[C@@H]4CC[C@@]13C)O2` showed an IC50 [4] of 600 nM.
In the case of `C[C@@H]1CC[C@]2(C(=O)O[C@@H]3O[C@H](CO)[C@@H](O)[C@H](O)[C@H]3O)CC[C@]3(C)C(=CC[C@@H]4[C@@]5(C)C[C@@H](O)[C@H](O)C(C)(C)[C@@H]5CC[C@]43C)[C@@H]2[C@]1(C)O`, the selectivity ratio [8] is reported as 4.1, the IC50 [4] is reported as 57.7 µg/mL and the IC50 [1] is reported as 19.4 µg/mL. For the same compound, the IC50 [5] was 30 µg/mL, the inhibition in vivo at 200 mg/kg [9] was 58.5% and the selectivity ratio [6] was 7.86. For the same compound, the selectivity ratio [2] was 12.1.
`CCN(CC)Cc1c(O)c(OC)cc2nc3c(cc12)CSc1ccc(C)cc1-3` showed an IC50 [1] of under 10000 nM.
Work on `CCN(CC)Cc1c(O)c(OC)cc2nc3c(cc12)CSc1cc(F)ccc1-3` yielded an IC50 [1] of under 10000 nM.
Work on `COc1cc2nc3c(cc2c(CN2CCCCC2)c1O)CSc1c(C)cc(C)cc1-3` yielded an IC50 [1] of under 10000 nM.
For `COC(=O)C1=C(C)NC(c2ncc(F)cc2F)=N[C@H]1c1ccc(F)cc1Cl`, the IC50 [10] was 50 nM.
`C[C@@H]1CC[C@H]2[C@@H](C)C(=O)O[C@@H]3O[C@@]4(C)CC[C@@H]1[C@]32OO4` [ARTEMISININ] gave an IC50 [11] of 55000 nM.
Compound `C[C@H]1[C@H](OC(=O)CCC(=O)O)O[C@@H]2O[C@@]3(C)CC[C@H]4[C@H](C)CC[C@@H]1[C@@]24OO3` [ARTESUNATE] has an IC50 [11] of 2300 nM.
For `COc1ccc2c(c1OC)CN(C)c1c-2ccc2cc3c(cc12)OCO3` [DIHYDROCHELERYTHRINE], the IC50 [12] was under 50 nM and the IC50 [13] was under 50 nM.
In the case of `O=C1OCc2c1cc1ccc3c(c1c2-c1ccc2c(c1)OCO2)OCO3` [HELIOXANTHIN], the EC50 [7] is reported as 1000 nM.
In the case of `Nc1ccn([C@@H]2CS[C@H](CO)O2)c(=O)n1` [LAMIVUDINE], the IC50 [1] is reported as 343000 nM, the IC50 [10] is reported as 260 nM and the selectivity ratio [2] is reported as 7.
`Cc1oc2nc1C(=O)N[C@@H](C)c1nc(co1)C(=O)N[C@@H](CC(C)C)C(=O)N1CCC[C@H]1C(=O)N[C@@H](C(C)C)c1nc-2cs1` [LEUCAMIDE A] gave an IC50 [10] of 76400 nM.
`CC(=O)Oc1ccccc1C(=O)Nc1ncc([N+](=O)[O-])s1` [NITAZOXANIDE] showed an EC50 [7] of 120 nM.
With `O=Cc1ccc(O)c(O)c1` [PROTOCATECHUALDEHYDE] the EC50 [14] was 3.94 µg/mL (≈ 28.5 µM), the EC50 [15] was 2.46 µg/mL (≈ 17.8 µM) and the IC50 [16] was 4.17 µg/mL (≈ 30.2 µM).
Work on `Cc1cc(O)c2c(c1)C(=O)c1cccc(O[C@@H]3O[C@H](CO)[C@@H](O)[C@H](O)[C@H]3O)c1C2=O` [PULMATIN] yielded a selectivity ratio [8] of over 42, a selectivity ratio [6] of over 42 and a selectivity ratio [2] of over 42.
In the case of `COc1c(O)cc(O)c2c(=O)cc(-c3ccccc3)oc12` [WOGONIN], the inhibition at 20 µg/mL [17] is reported as 45.4% and the IC50 [18] is reported as 4 µg/mL (≈ 14.1 µM).
